34 compounds from patent publication US20180186755A1, “LYSYL OXIDASE-LIKE 2 INHIBITORS AND USES THEREOF” (PharmAkea, Inc., priority 2015, published 2018) can be followed below.

Molecules are shown by their SMILES. Where a name gives a salt, the structure may show the parent alone. Some results are limits rather than exact numbers.

This experiment deals with T1, human LOXL2 (Homo sapiens, UniProt Q9Y4K0).
T1 construct: expressed in transfected cells; 10-20x concentrated conditioned media used as the enzyme source
T1 sequence (Q9Y4K0 26-774): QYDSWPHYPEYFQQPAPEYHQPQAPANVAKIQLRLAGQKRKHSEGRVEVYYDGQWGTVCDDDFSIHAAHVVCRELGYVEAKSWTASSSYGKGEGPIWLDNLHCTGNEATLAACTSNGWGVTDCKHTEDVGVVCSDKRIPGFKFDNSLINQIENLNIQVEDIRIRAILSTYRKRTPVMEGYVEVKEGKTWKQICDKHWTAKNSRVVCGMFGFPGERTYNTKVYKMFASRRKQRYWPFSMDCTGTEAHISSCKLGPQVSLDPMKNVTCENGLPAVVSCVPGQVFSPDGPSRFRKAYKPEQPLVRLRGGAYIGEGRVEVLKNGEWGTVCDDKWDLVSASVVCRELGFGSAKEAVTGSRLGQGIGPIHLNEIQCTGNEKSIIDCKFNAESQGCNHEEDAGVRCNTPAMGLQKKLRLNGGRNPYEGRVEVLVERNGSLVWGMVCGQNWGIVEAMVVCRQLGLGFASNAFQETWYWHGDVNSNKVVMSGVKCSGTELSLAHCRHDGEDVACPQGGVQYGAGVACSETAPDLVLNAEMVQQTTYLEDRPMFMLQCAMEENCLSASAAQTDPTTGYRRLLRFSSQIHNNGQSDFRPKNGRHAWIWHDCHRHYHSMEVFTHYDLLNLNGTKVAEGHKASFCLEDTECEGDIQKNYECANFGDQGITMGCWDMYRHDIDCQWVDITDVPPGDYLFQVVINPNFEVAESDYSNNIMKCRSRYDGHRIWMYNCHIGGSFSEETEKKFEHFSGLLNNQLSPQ
Kind of experiment: Human LOXL2 amine oxidase activity assay (Amplex Red fluorescence). Format: biochemical. As to conditions: concentrated conditioned media from CHO cells stably expressing human LOXL2; 2 h at 37° C. preincubation; DAP substrate. As for the experimental part: Example B-1: Human LOXL2 Amine Oxidase Activity Assay
LOXL2 amine oxidase activity is evaluated by measuring Amplex Red fluorescence using 10-20× concentrated conditioned media from CHO cells stably expressing human LOXL2.
To assay for amine oxidase activity, 10 μL of the concentrated conditioned media is incubated with 2 μL of test compound in DMSO and 73 μL Assay Buffer (50 mM Borate Buffer, pH8) for 2 h at 37° C. After the 2 h incubation, 5 ul of 10 mM 1,5-Diaminopentane (DAP) diluted in Assay Buffer and 10 μl of Amplex Red Mix (8.5 μl Assay Buffer+0.5 μl of 10 mM Amplex Red+1 μl of 500 U/ml Horseradish Peroxidase) are added and the plate mixed and immediately placed on the FlexStaion for fluorescence measurements. Fluorescence is read in kinetic mode every 2 min for 1 hour at excitation=544 and emission=590. The amine oxidase activity is calculated from the slope of the linear portion of the curve.
The compound `COc1ccc(CN2C(=O)CCc3c(Oc4cc(CN)ncn4)cccc32)cn1` [Compound 1-16, 5-((6-(Aminomethyl)pyrimidin-4-yl)oxy)-1-((6-methoxypyridin-3-yl)methyl)-3,4-dihydroquinolin-2(1H)-one acetate] came in with a half-maximal inhibitory concentration (IC50) of less than 100 nM.
`NCc1cc(OCc2cccc(C(=O)N[C@@H](CO)c3ccccc3)c2)ncn1` [Compound 1-78, (R)-3-(((6-(Aminomethyl)pyrimidin-4-yl)oxy)methyl)-N-(2-hydroxy-1-phenylethyl)benzamide] showed an IC50 of less than 100 nM.
The compound `CN(C(=O)Cn1ccc2c(Oc3cc(CN)ncn3)cccc21)c1ccccc1` [Compound 1-24, 2-(4-((6-(Aminomethyl)pyrimidin-4-yl)oxy)-1H-indol-1-yl)-N-methyl-N-phenylacetamide] registered an IC50 of less than 100 nM.
The compound `CN(Cc1cccc(C(=O)Nc2ccccc2)c1)c1cc(CN)ncn1` [Compound 1-45, 3-(((6-(Aminomethyl)pyrimidin-4-yl)(methyl)amino)methyl)-N-phenylbenzamide] gave a concentration for half-maximal inhibition (IC50) of 100 to 1000 nM.
`NCc1cc(Nc2cccc(C(=O)Nc3ccccc3)c2)ncn1` [Compound 1-42, 3-((6-(Aminomethyl)pyrimidin-4-yl)amino)-N-phenylbenzamide]: the IC50 is less than 100 nM.
The compound `NCc1cc(OCc2cccc(C(=O)NCCN3CCOC3=O)c2)ncn1` [Compound 1-38, 3-(((6-(Aminomethyl)pyrimidin-4-yl)oxy)methyl)-N-(2-(2-oxooxazolidin-3-yl)ethyl)benzamide] gave an IC50 of less than 100 nM.
In the case of `NCc1cc(NCc2cccc(C(=O)NCc3sc4ccccc4c3Cl)c2)ncn1` [Compound 1-98, 3-(((6-(Aminomethyl)pyrimidin-4-yl)amino)methyl)-N-((3-chlorobenzo[b]thiophen-2-yl)methyl)benzamide], the IC50 is less than 100 nM.
For `CN1CC(CNC(=O)c2cccc(COc3cc(CN)ncn3)c2)OC1=O` (racemic) [Compound 1-36, Racemic-3-(((6-(aminomethyl)pyrimidin-4-yl)oxy)methyl)-N-((3-methyl-2-oxooxazolidin-5-yl)methyl)benzamide], the IC50 is less than 100 nM.
With `NCc1cc(Oc2cccc(C(=O)NCc3ccc4ccccc4n3)c2)ncn1` [Compound 1-63, 3-((6-(Aminomethyl)pyrimidin-4-yl)oxy)-N-(quinolin-2-ylmethyl)benzamide], the IC50 was less than 100 nM.
Take `CCn1ccc2c(Oc3cc(CN)ncn3)cccc21` [Compound 1-20, (6-((1-Ethyl-1H-indol-4-yl)oxy)pyrimidin-4-yl)methanamine]: the IC50 is less than 100 nM.
In the case of `CC(C)(O)CNC(=O)c1cccc(COc2cc(CN)ncn2)c1` [Compound 1-34, 3-(((6-(Aminomethyl)pyrimidin-4-yl)oxy)methyl)-N-(2-hydroxy-2-methylpropyl)benzamide] it was less than 100 nM; in that of `NCc1cc(Oc2cccc3c2ccn3Cc2ccccc2)ncn1` [Compound 1-26, (6-((1-Benzyl-1H-indol-4-yl)oxy)pyrimidin-4-yl)methanamine], less than 100 nM; in that of `NCc1cc(OCc2cccc(C(=O)NCCn3cccn3)c2)ncn1` [Compound 1-39, N-(2-(1H-Pyrazol-1-yl)ethyl)-3-(((6-(aminomethyl)pyrimidin-4-yl)oxy)methyl)benzamide], less than 100 nM.
Take `NCc1cc(OCc2cccc(C(=O)NCc3cc4cc(F)ccc4[nH]3)c2)ncn1` [Compound 1-85, 3-(((6-(Aminomethyl)pyrimidin-4-yl)oxy)methyl)-N-((5-fluoro-1H-indol-2-yl)methyl)benzamide]: the IC50 was less than 100 nM.
As for `NCc1cc(OCc2cccc(C(=O)N3CCC(O)(C(F)(F)F)CC3)c2)ncn1` [Compound 1-94, (3-(((6-(Aminomethyl)pyrimidin-4-yl)oxy)methyl)phenyl)(4-hydroxy-4-(trifluoromethyl)piperidin-1-yl)methanone], the half-maximal inhibitory concentration (IC50) is less than 100 nM.
The compound `NCc1cc(Oc2cccc(C(=O)N3CC[C@H](O)C3)c2)ncn1` [Compound 1-10, (S)-(3-((6-(Aminomethyl)pyrimidin-4-yl)oxy)phenyl)(3-hydroxypyrrolidin-1-yl)methanone hydrochloride] showed an IC50 of less than 100 nM.
Compound `NCc1cc(OCc2cccc(C(=O)N3CCCC(O)(C(F)(F)F)C3)c2)ncn1` (racemic) [Compound 1-35, Racemic-(3-(((6-(aminomethyl)pyrimidin-4-yl)oxy)methyl)phenyl)(3-hydroxy-3-(trifluoromethyl)piperidin-1-yl)methanone] returned a 50% inhibitory concentration (IC50) of less than 100 nM.
As for `NCc1cc(OCc2cccc(C(=O)Nc3ccccc3)c2)ncn1` [Compound 1-40, 3-(((6-(Aminomethyl)pyrimidin-4-yl)oxy)methyl)-N-phenylbenzamide], the concentration for half-maximal inhibition (IC50) is less than 100 nM.
`NCc1cc(Oc2cccc3c2ccn3CC(=O)N2CCCCC2)ncn1` [Compound 1-23, 2-(4-((6-(Aminomethyl)pyrimidin-4-yl)oxy)-1H-indol-1-yl)-1-(piperidin-1-yl)ethan-1-one] had a 50% inhibitory concentration (IC50) of 100 to 1000 nM.
The compound `NCc1cc(Oc2ccc(F)cc2)ncn1` [Compound 1-1, (6-(4-Fluorophenoxy)pyrimidin-4-yl)methanamine trifluoroacetate] gave an IC50 of less than 100 nM.
`CS(=O)(=O)CCn1ccc2c(Oc3cc(CN)ncn3)cccc21` [Compound 1-25, (6-((1-(2-(Methylsulfonyl)ethyl)-1H-indol-4-yl)oxy)pyrimidin-4-yl)methanamine]: the half-maximal inhibitory concentration (IC50) is less than 100 nM.
In the case of `NCc1cc(Oc2cccc3c2CCC(=O)N3CC(=O)O)ncn1` [Compound 1-14, 2-(5-((6-(Aminomethyl)pyrimidin-4-yl)oxy)-2-oxo-3,4-dihydroquinolin-1(2H)-yl)acetic Acid Hydrochloride], the half-maximal inhibitory concentration (IC50) was in the range of 100 to 1000 nM.
The compound `NCc1cc(OCc2cccc(C(=O)NCCn3cnnn3)c2)ncn1` [Compound 1-46, N-(2-(1H-Tetrazol-1-yl)ethyl)-3-(((6-(aminomethyl)pyrimidin-4-yl)oxy)methyl)benzamide] gave an IC50 of less than 100 nM.
Consider `NCc1cc(OCc2cccc(C(=O)Nc3cccc(C(F)(F)F)c3)c2)ncn1` [Compound 1-77, 3-(((6-(Aminomethyl)pyrimidin-4-yl)oxy)methyl)-N-(3-(trifluoromethyl)phenyl)benzamide], for which the concentration for half-maximal inhibition (IC50) was less than 100 nM.
In the case of `NCc1cc(OCc2cccc(C(=O)NCc3ccnc(Cl)c3)c2)ncn1` [Compound 1-80, 3-(((6-(Aminomethyl)pyrimidin-4-yl)oxy)methyl)-N-((2-chloropyridin-4-yl)methyl)benzamide], the 50% inhibitory concentration (IC50) is less than 100 nM.
For `NCc1cc(NCc2cccc(C(=O)NCc3cc4ccccc4s3)c2)ncn1` [Compound 1-97, 3-(((6-(Aminomethyl)pyrimidin-4-yl)amino)methyl)-N-(benzo[b]thiophen-2-ylmethyl)benzamide], the IC50 was less than 100 nM.
In turn, `NCc1cc(-n2ncc3c(CO)cccc32)ncn1` [Compound 1-61, (1-(6-(Aminomethyl)pyrimidin-4-yl)-1H-indazol-4-yl)methanol] displayed a 50% inhibitory concentration (IC50) of less than 100 nM.
Consider `NCc1cc(Oc2cccc(C(=O)NCCO)c2)ncn1` [Compound 1-9, 3-((6-(Aminomethyl)pyrimidin-4-yl)oxy)-N-(2-hydroxyethyl)benzamide hydrochloride], for which the IC50 is less than 100 nM.
In the case of `NCc1cc(Oc2cccc(C(=O)NCCS(N)(=O)=O)c2)ncn1` [Compound 1-13, 3-((6-(Aminomethyl)pyrimidin-4-yl)oxy)-N-(2-sulfamoylethyl)benzamide hydrochloride] it was less than 100 nM; in that of `NCc1cc(NCc2cccc(C(=O)Nc3ccccc3)c2)ncn1` [Compound 1-43, 3-(((6-(Aminomethyl)pyrimidin-4-yl)amino)methyl)-N-phenylbenzamide], less than 100 nM; in that of `NCc1cc(-n2ccc3c(CO)cccc32)ncn1` [Compound 1-99, (1-(6-(Aminomethyl)pyrimidin-4-yl)-1H-indol-4-yl)methanol], 100 to 1000 nM.
As for `NCc1cc(Oc2cccc3[nH]ncc23)ncn1` [Compound 1-60, (6-((1H-Indazol-4-yl)oxy)pyrimidin-4-yl)methanamine], the figure is less than 100 nM; as for `NCc1cc(Oc2cccc(Oc3ccccc3)c2)ncn1` [Compound 1-2, (6-(3-Phenoxyphenoxy)pyrimidin-4-yl)methanamine hydrochloride], less than 100 nM.
The compound `NCc1cc(Oc2ccc3cc[nH]c3c2)ncn1` [Compound 1-17, (6-((1H-Indol-6-yl)oxy)pyrimidin-4-yl)methanamine] returned a 50% inhibitory concentration (IC50) of less than 100 nM.

The IC50 is the midpoint of a concentration-inhibition curve.
